According to patent publication US20250313563A1, “GLYCOGEN SYNTHASE KINASE 3 INHIBITORS AND USES THEREOF” (The Broad Institute, Inc., priority 2022, published 2025):
pIC50: −log10 of the molar value. Like-named read-outs stand apart in the source and are kept apart here.

How the values were obtained:
[1] = target: GSK3α (GST-full length GSK3α) (Homo sapiens (Human), UniProt P49840); assay: GSK3α TR-FRET kinase assay; format: biochemical
Summary of the method: (§1)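 Compound preincubated 30 min, then 1 nM GST-full-length GSK3α or GSK3b run 100 min at ambient temperature with 200 nM biotinylated, S645-prephosphorylated glycogen synthase 631-650 peptide in Tris pH 7.5, MgCl2, DTT, BSA, 1% DMSO. ATP 4 μM (α) or 2 μM (β), or 1 mM. EDTA-quenched; Tb-anti-pSer641/streptavidin-d2 TR-FRET 665/615 ratio gave IC50.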

[2] = target: GSK3b (GST-full length GSK3b) (Homo sapiens (Human), UniProt P49841); assay: GSK3b TR-FRET kinase assay; format: biochemical
GSK3b (GST-full length GSK3b), sequence (P49841 whole entry): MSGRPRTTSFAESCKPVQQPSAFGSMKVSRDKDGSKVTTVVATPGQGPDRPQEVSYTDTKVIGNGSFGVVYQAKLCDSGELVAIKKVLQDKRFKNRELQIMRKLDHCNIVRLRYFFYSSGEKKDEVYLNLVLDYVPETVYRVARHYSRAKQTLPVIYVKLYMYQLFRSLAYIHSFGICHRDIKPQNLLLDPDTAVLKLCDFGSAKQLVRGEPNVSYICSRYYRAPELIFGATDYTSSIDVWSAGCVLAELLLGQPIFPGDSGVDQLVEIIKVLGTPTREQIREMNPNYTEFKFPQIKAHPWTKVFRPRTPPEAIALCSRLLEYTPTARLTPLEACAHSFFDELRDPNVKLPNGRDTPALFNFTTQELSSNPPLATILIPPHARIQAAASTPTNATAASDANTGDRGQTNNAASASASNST
Summary of the method: as §1

[3] = 1 nM GSK3α, 4 μM ATP, 30 minute preincubation, Table 16, read-out: GSK3-A TR-FRET BIOCHEMICAL (TR-FRET)
[4] = 1 nM GSK3b, 2 μM ATP, 30 minute preincubation, Table 16, read-out: GSK3-B TR-FRET BIOCHEMICAL (TR-FRET)
[5] = 1 nM GSK3α, 4 μM ATP, 30 minute preincubation, Table 16, read-out: GSK3-A TR-FRET BIOCHEMICAL (TR-FRET), IC50
[6] = 1 nM GSK3b, 2 μM ATP, 30 minute preincubation, Table 16, read-out: GSK3-B TR-FRET BIOCHEMICAL (TR-FRET), IC50

GSK3α (GST-full length GSK3α), sequence (P49840 whole entry): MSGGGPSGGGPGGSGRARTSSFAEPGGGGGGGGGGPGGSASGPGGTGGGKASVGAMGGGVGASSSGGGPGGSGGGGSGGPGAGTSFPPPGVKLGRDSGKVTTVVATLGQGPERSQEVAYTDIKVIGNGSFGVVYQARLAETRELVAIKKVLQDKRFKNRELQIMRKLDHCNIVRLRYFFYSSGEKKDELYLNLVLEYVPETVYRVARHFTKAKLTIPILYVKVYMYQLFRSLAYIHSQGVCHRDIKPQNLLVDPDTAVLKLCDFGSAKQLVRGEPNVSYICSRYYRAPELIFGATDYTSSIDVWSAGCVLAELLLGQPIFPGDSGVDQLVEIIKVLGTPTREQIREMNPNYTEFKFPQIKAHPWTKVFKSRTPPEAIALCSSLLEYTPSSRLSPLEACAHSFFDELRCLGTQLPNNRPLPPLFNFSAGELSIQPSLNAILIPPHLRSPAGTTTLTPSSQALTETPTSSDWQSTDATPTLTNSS

CO[C@H]1CC[C@@]2(CC1)C1=C(CC(C)(C)CC1=O)Nc1n[nH]cc12 [Compound 884120]
pIC50 [1, 3]: 6.00 to 7.00
pIC50 [2, 4]: 6.00 to 7.00

CCC1(c2cccc(N3CCCCCC3)c2)C2=C(CC(C)(C)CC2=O)Nc2n[nH]cc21 (stereo not drawn) [Compound 885088]
pIC50 [1, 5]: 6.00 to 7.00
pIC50 [2, 6]: 6.00 to 7.00

CCC1(c2cccc(N3CCCC3C)c2)C2=C(CC(C)(C)CC2=O)Nc2n[nH]cc21 (stereo not drawn) [Compound 885204]
pIC50 [1, 5]: ≥ 7.00
pIC50 [2, 6]: 6.00 to 7.00

CCN(c1cccnc1)c1cccc(C2(CC)C3=C(CC(C)(C)CC3=O)Nc3n[nH]cc32)c1 (stereo not drawn) [Compound 885331]
pIC50 [1, 5]: ≥ 7.00
pIC50 [2, 6]: ≥ 7.00

CCC1(c2cccc(N(c3cccnc3)C(C)C)c2)C2=C(CC(C)(C)CC2=O)Nc2n[nH]cc21 (stereo not drawn) [Compound 885344]
pIC50 [1, 5]: ≥ 7.00
pIC50 [2, 6]: ≥ 7.00

CCN(c1cccc(C2(CC)C3=C(CC(C)(C)CC3=O)Nc3n[nH]cc32)c1)c1cccnc1C (stereo not drawn) [Compound 885367]
pIC50 [1, 5]: 6.00 to 7.00
pIC50 [2, 6]: 5.30 to 6.00

CCC1(c2cccc(N(C)c3cnn(C)c3)c2)C2=C(CC(C)(C)CC2=O)Nc2n[nH]cc21 (stereo not drawn) [Compound 885382]
pIC50 [1, 5]: 6.00 to 7.00
pIC50 [2, 6]: 5.30 to 6.00

CC[C@]1(c2cccc([C@H]3CCOC3)c2)C2=C(CC(C)(C)CC2=O)Nc2n[nH]cc21 [Compound 889558]
pIC50 [1, 5]: ≥ 7.00
pIC50 [2, 6]: 6.00 to 7.00

CCC1(c2cccc(C3CCOC3)c2)C2=C(CC(C)(C)CC2=O)Nc2n[nH]cc21 (stereo not drawn) [Compound 889565]
pIC50 [1, 5]: 6.00 to 7.00
pIC50 [2, 6]: 5.30 to 6.00

CC1(C)CC(=O)C2=C(C1)Nc1n[nH]cc1C21CSC1 [Compound 889567]
pIC50 [1, 3]: ≥ 7.00
pIC50 [2, 4]: 6.00 to 7.00

CC1(C)CC(=O)C2=C(C1)Nc1n[nH]cc1C21CN(C(=O)OCc2ccccc2)C1 [Compound 889568]
pIC50 [1, 3]: 6.00 to 7.00
pIC50 [2, 4]: 5.30 to 6.00

CC1(C)CC(=O)C2=C(C1)Nc1n[nH]cc1C21COC1 [Compound 889569]
pIC50 [1, 3]: 6.00 to 7.00
pIC50 [2, 4]: 6.00 to 7.00

CC1(C)CC(=O)C2=C(C1)Nc1n[nH]cc1C2(CO)CO [Compound 889570]
pIC50 [1, 5]: < 5.30
pIC50 [2, 6]: < 5.30

CC1(C)CC(=O)C2=C(C1)Nc1n[nH]cc1C21CCCNCC1 (stereo not drawn) [Compound 889571]
pIC50 [1, 5]: < 5.30
pIC50 [2, 6]: < 5.30

O=C1CC(C(F)(F)F)CC2=C1C1(CCOCC1)c1c[nH]nc1N2 (stereo not drawn) [Compound 889572]
pIC50 [1, 5]: 6.00 to 7.00
pIC50 [2, 6]: 6.00 to 7.00

O=C1CC2(CCOC2)CC2=C1C1(CCOCC1)c1c[nH]nc1N2 (stereo not drawn) [Compound 889573]
pIC50 [1, 5]: ≥ 7.00
pIC50 [2, 6]: 6.00 to 7.00

CC1(C)CC(=O)C2=C(C1)Nc1n[nH]cc1C21CCCN(CC(F)F)CC1 (stereo not drawn) [Compound 889574]
pIC50 [1, 3]: 6.00 to 7.00
pIC50 [2, 4]: 6.00 to 7.00

CC(=O)N1CCCC2(CC1)C1=C(CC(C)(C)CC1=O)Nc1n[nH]cc12 (stereo not drawn) [Compound 889575]
pIC50 [1, 5]: 6.00 to 7.00
pIC50 [2, 6]: 5.30 to 6.00

CC1(C)CC(=O)C2=C(C1)Nc1n[nH]cc1C21CCCN(CC(F)(F)F)CC1 (stereo not drawn) [Compound 889576]
pIC50 [1, 3]: 6.00 to 7.00
pIC50 [2, 4]: 6.00 to 7.00

CC1(C)CC(=O)C2=C(C1)Nc1n[nH]cc1C21CCCN(C(=O)c2ccccc2)CC1 (stereo not drawn) [Compound 889577]
pIC50 [1, 5]: 5.30 to 6.00
pIC50 [2, 6]: 5.30 to 6.00

CC1(C)CC(=O)C2=C(C1)Nc1n[nH]cc1C21CCCN(S(=O)(=O)c2ccccc2)CC1 (stereo not drawn) [Compound 889578]
pIC50 [1, 3]: ≥ 7.00
pIC50 [2, 4]: ≥ 7.00

CCC1(c2cccc(S(=O)(=O)CC)c2)C2=C(CC(C)(C)CC2=O)Nc2n[nH]cc21 (stereo not drawn) [Compound 889579]
pIC50 [1, 5]: ≥ 7.00
pIC50 [2, 6]: ≥ 7.00

CCC1(c2cccc(N3CCOCC3)c2)C2=C(CC(C)(C)CC2=O)Nc2n[nH]c(C)c21 (stereo not drawn) [Compound 889582]
pIC50 [1, 5]: 6.00 to 7.00
pIC50 [2, 6]: 5.30 to 6.00

CC(=O)N1CC[C@@]2(C1)C1=C(CC(C)(C)CC1=O)Nc1n[nH]cc12 [Compound 889583]
pIC50 [1, 5]: 5.30 to 6.00
pIC50 [2, 6]: < 5.30

CC(=O)N1CC[C@]2(C1)C1=C(CC(C)(C)CC1=O)Nc1n[nH]cc12 [Compound 889584]
pIC50 [1, 5]: 6.00 to 7.00
pIC50 [2, 6]: 5.30 to 6.00

CCC1(c2cccc(N3CCC3)c2)C2=C(CC(C)(C)CC2=O)Nc2n[nH]cc21 (stereo not drawn) [Compound 889631]
pIC50 [1, 5]: 6.00 to 7.00
pIC50 [2, 6]: 6.00 to 7.00

CC[C@]1(c2cccc(N3CCC3)c2)C2=C(CC(C)(C)CC2=O)Nc2n[nH]cc21 [Compound 889632]
pIC50 [1, 5]: < 5.30
pIC50 [2, 6]: < 5.30

CCC1(c2cccc(N3CCCc4ncccc43)c2)C2=C(CC(C)(C)CC2=O)Nc2n[nH]cc21 (stereo not drawn) [Compound 889639]
pIC50 [1, 5]: ≥ 7.00
pIC50 ([1]; read-out: GSK3-A (TR-FRET 1 mM ATP), GMean, IC50, 1 mM ATP, geometric mean): ≥ 7.00
pIC50 [2, 6]: ≥ 7.00
pIC50 ([2]; read-out: GSK3-B (TR-FRET 1 mM ATP), GMean, IC50, 1 mM ATP, geometric mean): 6.00 to 7.00

CC1(C)CC(=O)C2=C(C1)Nc1n[nH]cc1[C@]21C[C@H](c2ccncc2)C1 [Compound 889664]
pIC50 [1, 3]: ≥ 7.00
pIC50 [2, 4]: 6.00 to 7.00
